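How tested: cells in 96-well plates exposed to compound for 48 hours at five concentrations. Abbreviation: GI50, concentration required for 50% inhibition of growth.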 Activity calls are given as the source filed them. Cut-off read from the data, not from the text of the source: active = GI50 up to about 1.1 µM and inactive = higher.
Assays:
Assay in all cases: growth of human tumour cells (NCI), 48 h
ACHN = system: ACHN
CCRF-CEM = system: CCRF-CEM
EKVX = system: EKVX
HCC 2998 = system: HCC 2998
HL-60 = system: HL-60
Hs-578T = system: Hs-578T
K562 = system: K562
LOX IMVI = system: LOX IMVI
MCF7 = system: MCF7
MOLT-4 = system: MOLT-4
NCI-H226 = system: NCI-H226
NCI-H23 = system: NCI-H23
OVCAR-3 = system: OVCAR-3
RXF 393 = system: RXF 393
SF-295 = system: SF-295
SNB-19 = system: SNB-19
UO-31 = system: UO-31
HOP-92 = system: HOP-92
RPMI-8226 = system: RPMI-8226
SNB-75 = system: SNB-75

Measured: GI50

C=CCOC1(CC=C)C(=O)OC2C(O)COC21O (centres undefined)
inactive: ACHN > 100 µM | CCRF-CEM > 100 µM | EKVX > 100 µM | HCC 2998 > 100 µM | HL-60 > 100 µM | Hs-578T > 100 µM | K562 > 100 µM | LOX IMVI > 100 µM | MCF7 > 100 µM | MOLT-4 > 100 µM | NCI-H226 > 100 µM | NCI-H23 > 100 µM | OVCAR-3 > 100 µM | RXF 393 > 100 µM | SF-295 > 100 µM | SNB-19 > 100 µM | UO-31 > 100 µM

C=CCc1cc(-c2n[nH]c(=S)[nH]2)ccc1N/N=N/c1ccc(C(=O)O)cc1
inactive: ACHN 71.3 µM | CCRF-CEM 54 µM | EKVX > 100 µM | HL-60 30.8 µM | HOP-92 > 100 µM | Hs-578T 44.6 µM | K562 49 µM | LOX IMVI 74.5 µM | MCF7 59.4 µM | MOLT-4 32.4 µM | NCI-H226 42.4 µM | NCI-H23 48.1 µM | OVCAR-3 56 µM | RPMI-8226 38.5 µM | RXF 393 89.5 µM | SF-295 52.4 µM | SNB-19 > 100 µM | SNB-75 > 100 µM | UO-31 > 100 µM

N#CSC#CCCC#CSC#N
inactive: ACHN 17.5 µM | CCRF-CEM 3.1 µM | EKVX 17.7 µM | HCC 2998 17.5 µM | HL-60 > 100 µM | HOP-92 17.5 µM | Hs-578T 23.5 µM | K562 13.4 µM | LOX IMVI 18.7 µM | MCF7 20.7 µM | MOLT-4 2.58 µM | NCI-H226 25.1 µM | NCI-H23 20.6 µM | OVCAR-3 21.6 µM | RXF 393 18.9 µM | SF-295 18.3 µM | SNB-19 15.5 µM | UO-31 18 µM

CCOC(=O)c1nnn(CCCCO)c1C(=O)OCC
inactive: ACHN > 10 µM | CCRF-CEM > 100 µM | EKVX > 100 µM | HCC 2998 > 100 µM | HOP-92 > 100 µM | Hs-578T > 100 µM | LOX IMVI > 100 µM | MCF7 > 100 µM | MOLT-4 > 100 µM | NCI-H226 > 100 µM | NCI-H23 > 100 µM | RXF 393 > 100 µM | SF-295 > 100 µM | SNB-19 30.1 µM | SNB-75 > 100 µM | UO-31 > 100 µM

Cc1c(NC(=O)CSC(=S)N2CCN(Cc3ccccc3)CC2)c(=O)n(-c2ccccc2)n1C
inactive: ACHN > 100 µM | CCRF-CEM > 100 µM | EKVX > 100 µM | HCC 2998 28.4 µM | Hs-578T > 100 µM | K562 > 100 µM | LOX IMVI > 100 µM | MCF7 > 100 µM | MOLT-4 > 100 µM | NCI-H226 > 100 µM | NCI-H23 > 100 µM | OVCAR-3 > 100 µM | RPMI-8226 > 100 µM | RXF 393 > 100 µM | SF-295 > 100 µM | SNB-19 > 100 µM | UO-31 > 100 µM

FC(F)(F)c1ccc(/N=C/C=C(/Nc2ccc(C(F)(F)F)cc2)c2ccc(Cl)cc2)cc1
inactive: ACHN 10.1 µM | CCRF-CEM 5.22 µM | EKVX 15.9 µM | HL-60 12.9 µM | HOP-92 16.5 µM | Hs-578T 13 µM | K562 18.4 µM | LOX IMVI 1.64 µM | MCF7 17.5 µM | MOLT-4 4.06 µM | NCI-H226 4.53 µM | NCI-H23 12.2 µM | OVCAR-3 6.78 µM | RPMI-8226 4.72 µM | RXF 393 10.1 µM | SF-295 15.8 µM | SNB-19 8.61 µM | SNB-75 17.6 µM | UO-31 14.5 µM

COC(=O)/C=C(\C)CC/C=C(\C)CCC(O)C(C)(C)O (centres undefined)
inactive: ACHN 25.6 µM | CCRF-CEM 15.5 µM | EKVX 41.9 µM | HCC 2998 16.8 µM | HL-60 15.6 µM | HOP-92 29.9 µM | Hs-578T 28.6 µM | K562 26.1 µM | LOX IMVI 16.2 µM | MCF7 37 µM | MOLT-4 15.2 µM | NCI-H226 28.8 µM | NCI-H23 29.2 µM | OVCAR-3 17.9 µM | RXF 393 26.3 µM | SF-295 23.1 µM | SNB-19 > 100 µM | SNB-75 17.1 µM | UO-31 39.2 µM

O=C1Nc2ccccc2/C1=C\c1c(Cl)nc2n1CCS2
inactive: ACHN 38.3 µM | CCRF-CEM 26.9 µM | EKVX 22.9 µM | HCC 2998 17.9 µM | HL-60 16.8 µM | HOP-92 34 µM | Hs-578T 16.6 µM | K562 21.3 µM | LOX IMVI 31.8 µM | MCF7 13 µM | MOLT-4 30.4 µM | NCI-H23 23.7 µM | OVCAR-3 20.4 µM | RPMI-8226 27.7 µM | RXF 393 22.6 µM | SF-295 25.2 µM | SNB-19 35.6 µM | SNB-75 22.3 µM | UO-31 27 µM
